According to patent US9169254B2, “Spiroimidazolone derivative” (Chugai Seiyaku Kabushiki Kaisha, priority 2009, dated 2015):

Target: T1, human PTH1 receptor (Homo sapiens, UniProt Q03431)
T1 sequence (Q03431 27-593): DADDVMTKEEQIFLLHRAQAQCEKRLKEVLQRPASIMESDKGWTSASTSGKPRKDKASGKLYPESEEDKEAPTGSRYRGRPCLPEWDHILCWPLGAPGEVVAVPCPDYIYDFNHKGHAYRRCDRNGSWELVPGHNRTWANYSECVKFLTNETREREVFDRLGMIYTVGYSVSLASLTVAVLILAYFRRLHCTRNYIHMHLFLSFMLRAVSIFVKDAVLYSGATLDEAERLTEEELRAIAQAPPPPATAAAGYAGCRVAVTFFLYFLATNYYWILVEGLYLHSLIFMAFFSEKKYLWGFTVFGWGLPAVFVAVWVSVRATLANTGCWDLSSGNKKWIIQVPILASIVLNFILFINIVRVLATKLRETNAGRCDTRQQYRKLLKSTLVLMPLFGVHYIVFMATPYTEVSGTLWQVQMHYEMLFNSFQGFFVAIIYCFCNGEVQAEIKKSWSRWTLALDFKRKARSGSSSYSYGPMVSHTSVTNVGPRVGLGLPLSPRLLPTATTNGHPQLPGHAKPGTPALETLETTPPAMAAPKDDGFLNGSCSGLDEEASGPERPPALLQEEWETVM
Assay: In vitro cAMP signal activity in HKRK-B7 cells (LLC-PK1 cells overexpressing the human PTH1 receptor)
Assay type: cell-based
Settings: HKRK-B7 cells; compound at 1×10^−3 M; cAMP produced as percentage of that produced by hPTH(1-34) at 100 nM

Row | SMILES | cAMP production activity (%)
1 | CC(=O)Nc1cc(C)c(CCS(=O)(=O)N2CCC3(CC2)N=C(C2CCCCC2)NC3=O)c(C)c1 [Compound 302, N-{4-[2-(2-cyclohexyl-4-oxo-1,3,8-triaza-spiro[4.5]dec-1-ene-8-sulfonyl)-ethyl]-3,5-dimethyl-phenyl}-acetamide] | 95
2 | Cc1cc(NCC(=O)N2CCN(C)CC2)ccc1CCS(=O)(=O)N1CCC2(CC1)N=C(c1cccc(OC(F)(F)F)c1)NC2=O [Compound 845, 8-(2-{2-methyl-4-[2-(4-methyl-piperazin-1-yl)-2-oxo-ethylamino]-phenyl}-ethanesulfonyl)-2-(3-trifluoromethoxy-phenyl)-1,3,8-triaza-spiro[4.5]dec-1-en-4-one] | 68
3 | CN(C)C(=O)c1ccc(CCCS(=O)(=O)N2CCC3(CC2)N=C(C2CCCCC2)NC3=O)cc1 [Compound 324, 4-[3-(2-cyclohexyl-4-oxo-1,3,8-triaza-spiro[4.5]dec-1-ene-8-sulfonyl)-propyl]-N,N-dimethyl-benzamide] | 30
4 | Cc1cc(N2C(=O)NC(C)(C)C2=O)ccc1/C=C/S(=O)(=O)N1CCC2(CC1)N=C(C1CCC(CCC(F)(F)F)CC1)NC2=O (stereo not shown) [Compound 540, 5,5-Dimethyl-3-[3-methyl-4-((E)-2-{4-oxo-2-[4-(3,3,3-trifluoro-propyl)-cyclohexyl]-1,3,8-triaza-spiro[4.5]dec-1-ene-8-sulfonyl}-vinyl)-phenyl]-imidazolidine-2,4-dione] | 22
5 | CC(=O)N(CCOCCO)c1ccc(/C=C/S(=O)(=O)N2CCC3(CC2)N=C(C2CCC(CCC(F)(F)F)CC2)NC3=O)c(C)c1 (stereo not shown) [Compound 544, N-[2-(2-hydroxy-ethoxy)-ethyl]-N-[3-methyl-4-((E)-2-{4-oxo-2-[4-(3,3,3-trifluoro-propyl)-cyclohexyl]-1,3,8-triaza-spiro[4.5]dec-1-ene-8-sulfonyl}-vinyl)-phenyl]-acetamide] | 80
6 | CN(C)CCNC(=O)Cc1ccc(/C=C/S(=O)(=O)N2CCC3(CC2)N=C(C2CCCCC2)NC3=O)cc1 [Compound 208, 2-{4-[(E)-2-(2-cyclohexyl-4-oxo-1,3,8-triaza-spiro[4.5]dec-1-ene-8-sulfonyl)-vinyl]-phenyl}-N-(2-dimethylamino-ethyl)-acetamide] | 22
7 | Cc1cc(C2=NC3(CCN(S(=O)(=O)CCc4c(C)cc(C(=O)N5CCC(C)(O)CC5)cc4C)CC3)C(=O)N2)ccc1C(F)(F)F [Compound 1235, 8-{2-[4-(4-hydroxy-4-methyl-piperidine-1-carbonyl)-2,6-dimethyl-phenyl]-ethanesulfonyl}-2-(3-methyl-4-trifluoromethyl-phenyl)-1,3,8-triaza-spiro[4.5]dec-1-en-4-one] | 98
8 | Cc1cc(N(C)C(N)=O)cc(C)c1/C=C\S(=O)(=O)N1CCC2(CC1)N=C(CCCCCCCCCF)NC2=O [Compound 1326, 1-(4-{(Z)-2-[2-(9-fluoro-nonyl)-4-oxo-1,3,8-triaza-spiro[4.5]dec-1-ene-8-sulfonyl]-vinyl}-3,5-dimethyl-phenyl)-1-methyl-urea] | 84
9 | Cc1cc(N(CCO)C(=O)NCCO)cc(C)c1/C=C/S(=O)(=O)N1CCC2(CC1)N=C(c1cccc(OC(F)(F)F)c1)NC2=O [Compound 532, 1-(3,5-dimethyl-4-{(E)-2-[4-oxo-2-(3-trifluoromethoxy-phenyl)-1,3,8-triaza-spiro[4.5]dec-1-ene-8-sulfonyl]-vinyl}-phenyl)-1,3-bis-(2-hydroxy-ethyl)-urea] | 80
10 | Cc1cc(N(C)C(N)=O)cc(C)c1CCS(=O)(=O)N1CCC2(CC1)N=C(c1cccc(-c3ccccc3-c3ccccc3)c1)NC2=O [Compound 1087, 1-{3,5-Dimethyl-4-[2-(4-oxo-2-[1,1′;2′,1″]terphenyl-3-yl-1,3,8-triaza-spiro[4.5]dec-1-ene-8-sulfonyl)-ethyl]-phenyl}-1-methyl-urea] | 97
11 | CCC[C@@H]1CCC[C@H](C2=NC3(CCN(S(=O)(=O)CCc4ccc(N5C(=O)CNC5=O)cc4C)CC3)C(=O)N2)C1 [Compound 949, 3-(3-methyl-4-{2-[4-oxo-2-((1S,3R)-3-propyl-cyclohexyl)-1,3,8-triaza-spiro[4.5]dec-1-ene-8-sulfonyl]-ethyl}-phenyl)-imidazolidine-2,4-dione] | 92
12 | Cc1cccc(C2=NC3(CCN(S(=O)(=O)CCc4ccc(C(=O)N(C)C)cc4C)CC3)C(=O)N2)c1 [Compound 84, 3,N,N-trimethyl-4-[2-(4-oxo-2-m-tolyl-1,3,8-triaza-spiro[4.5]dec-1-ene-8-sulfonyl)-ethyl]-benzamide] | 51
13 | Cn1cc(-c2ccccc2CCS(=O)(=O)N2CCC3(CC2)N=C(C2CCCCC2)NC3=O)cn1 [Compound 340, 2-cyclohexyl-8-{2-[2-(1-methyl-1H-pyrazol-4-yl)-phenyl]-ethanesulfonyl}-1,3,8-triaza-spiro[4.5]dec-1-en-4-one] | 67
14 | O=C(c1ccc2[nH]ccc2c1)N1CCCC(C2=NC3(CCN(S(=O)(=O)CCc4cccc5ccccc45)CC3)C(=O)N2)C1 (stereo not shown) [Compound 428, 2-[1-(1H-Indol-5-carbonyl)-piperidin-3-yl]-8-(2-naphthalen-1-yl-ethanesulfonyl)-1,3,8-triaza-spiro[4.5]dec-1-en-4-one] | 8.8
15 | Cc1cc(C(=O)N(C)C)ccc1-c1ccc(S(=O)(=O)N2CCC3(CC2)N=C(c2ccc(F)c(C(F)(F)F)c2)NC3=O)s1 [Compound 333, 4-{5-[2-(4-fluoro-3-trifluoromethyl-phenyl)-4-oxo-1,3,8-triaza-spiro[4.5]dec-1-ene-8-sulfonyl]-thiophen-2-yl}-3,N,N-trimethyl-benzamide] | 87
16 | Cc1cc(C(=O)N(C)C)ccc1CCS(=O)(=O)N1CCC2(CC1)N=C(C1CCC(C(F)(F)F)CC1)NC2=O (stereo not shown) [Compound 104, 3,N,N-trimethyl-4-{2-[4-oxo-2-(4-trifluoromethyl-cyclohexyl)-1,3,8-triaza-spiro[4.5]dec-1-ene-8-sulfonyl]-ethyl}-benzamide] | 79
17 | Cc1cc(C(=O)N(C)C)ccc1CCS(=O)(=O)N1CCC2(CC1)N=C(c1cccc(Cl)c1)NC2=O [Compound 81, 4-{2-[2-(3-chloro-phenyl)-4-oxo-1,3,8-triaza-spiro[4.5]dec-1-ene-8-sulfonyl]-ethyl}-3,N,N-trimethyl-benzamide] | 57
18 | Cc1cc(OC[C@H](O)CO)cc(C)c1/C=C/S(=O)(=O)N1CCC2(CC1)N=C(c1ccc3c(c1)OC(F)(F)O3)NC2=O [Compound 1165, 2-(2,2-difluoro-benzo[1,3]dioxol-5-yl)-8-{(E)-2-[4-((R)-2,3-dihydroxy-propoxy)-2,6-dimethyl-phenyl]-ethenesulfonyl}-1,3,8-triaza-spiro[4.5]dec-1-en-4-one] | 4.3
19 | O=C(NCc1ccccc1)c1ccccc1S(=O)(=O)N1CCC2(CC1)N=C(C1CCCCC1)NC2=O [Compound 347, N-Benzyl-2-(2-cyclohexyl-4-oxo-1,3,8-triaza-spiro[4.5]dec-1-ene-8-sulfonyl)-benzamide] | 23
20 | Cc1cc(C(=O)N2CCN(C(=O)N(C)C)CC2)cc(C)c1/C=C/S(=O)(=O)N1CCC2(CC1)N=C(c1cccc(OC(F)(F)F)c1)NC2=O [Compound 395, 4-(3,5-dimethyl-4-{(E)-2-[4-oxo-2-(3-trifluoromethoxy-phenyl)-1,3,8-triaza-spiro[4.5]dec-1-ene-8-sulfonyl]-vinyl}-benzoyl)-piperazine-1-carboxylic acid dimethylamide] | 88
21 | CC(=O)Nc1ccc(CCS(=O)(=O)N2CCC3(CC2)N=C(C2CCCC2)NC3=O)c(C)c1 [Compound 903, N-{4-[2-(2-Cyclopentyl-4-oxo-1,3,8-triaza-spiro[4.5]dec-1-ene-8-sulfonyl)-ethyl]-3-methyl-phenyl}-acetamide] | 56
22 | Cc1cc(C(=O)N2CCC(C)(O)CC2)cc(C)c1/C=C/S(=O)(=O)N1CCC2(CC1)N=C(c1ccc(F)c(C)c1C)NC2=O [Compound 1192, 2-(4-fluoro-2,3-dimethyl-phenyl)-8-{(E)-2-[4-(4-hydroxy-4-methyl-piperidine-1-carbonyl)-2,6-dimethyl-phenyl]-ethenesulfonyl}-1,3,8-triaza-spiro[4.5]dec-1-en-4-one] | 100
23 | O=C1NC(c2cccc(OC(F)(F)F)c2)=NC12CCN(S(=O)(=O)/C=C/c1ccc3c(ccn3C[C@H](O)CO)c1)CC2 [Compound 597, 8-{(E)-2-[1-((S)-2,3-dihydroxy-propyl)-1H-indol-5-yl]-ethenesulfonyl}-2-(3-trifluoromethoxy-phenyl)-1,3,8-triaza-spiro[4.5]dec-1-en-4-one] | 51
24 | Cc1cc(C(=O)N2CCS(=O)(=O)CC2)cc(C)c1CCS(=O)(=O)N1CCC2(CC1)N=C(C1CCC(C)CC1)NC2=O (stereo not shown) [Compound 1183, 8-{2-[4-(1,1-dioxo-1λ^6-thiomorpholine-4-carbonyl)-2,6-dimethyl-phenyl]-ethanesulfonyl}-2-(4-methyl-cyclohexyl)-1,3,8-triaza-spiro[4.5]dec-1-en-4-one] | 90
25 | Cc1cc(N(C)C(N)=O)cc(C)c1CCS(=O)(=O)N1CCC2(CC1)N=C(CCCCCCCCCCCO)NC2=O [Compound 1361, 1-(4-{2-[2-(11-hydroxy-undecyl)-4-oxo-1,3,8-triaza-spiro[4.5]dec-1-ene-8-sulfonyl]-ethyl}-3,5-dimethyl-phenyl)-1-methyl-urea] | 104
